Assay results reported in US9044501B2, “Method of preventing and/or treating a neurodegenerative disease by administering an extract of Lycoris chejuensis and/or a compound isolated therefrom” (KOREA INSTITUTE OF SCIENCE AND TECHNOLOGY, priority 2009, dated 2015).

What was measured:
viable cells = experiment: MTT Cell Proliferation assay, effect on cell death; assay type: cell-based
Experimental: In order to measure the effect of an extraction or a fraction of Lycoris chejuensis on cell death, MTT Cell Proliferation assay (ATCC catalog #30-1010K, Manassas, USA), which is a conventionally known method, was used. In particular, a cell was treated with various concentrations of an ethanol extract (CJ) of Lycoris chejuensis and a butanol fraction (CJ-3) of Lycoris chejuensis for 8 hours, and then, viable cells were quantified.

[1] = system: β-amyloid (Aβ40) production; experiment: β-amyloid (Aβ40) production in APP-transfected HeLa cells, ELISA of culture solution; assay type: cell-based, human
Experimental: (§1) In order to examine the effect of the ethanol extract of Lycoris chejuensis obtained in Example <1-1> to inhibit β-amyloid production, HeLa cell line transfected with human amyloid precursor protein(APP) was cultured in DMEM culture medium (Cat. #11995, Gibco, USA). The cell line was supplied by Prof. Tae-Wan Kim, Department of Pathology, Columbia University Medical Center, New York, N.Y.10032, USA.
(§2) To the cell culture solution, the ethanol extract of Lycoris chejuensis (CJ) obtained in Example <1-1> was added, and then, it was cultured at 37° C. for 8 hours, and the amount of β-amyloid secreted in the culture solution was measured. More specifically, in order to quantify β-amyloid, two kinds of β-amyloid (Aβ40, Aβ42), Human β-Amyloid (Aβ40) and Human β-Amyloid (Aβ42) Colorimetric ELISA kits (#KHB3482 and #KHB3442; BioSource International, Inc., USA) were respectively used. The negative control means the case to which the extract of Lycoris chejuensis was not added.

[2] = system: β-amyloid (Aβ42) production; experiment: β-amyloid (Aβ42) production in APP-transfected HeLa cells, ELISA of culture solution; assay type: cell-based, human
Experimental: as §1, §2

[3] = system: β-amyloid (Aβ40) production; experiment: β-amyloid (Aβ40) production in APP-transfected HeLa cells, ELISA of culture solution; assay type: cell-based, human; conditions: for Inhibition rate (%) of Aβ40 production compared to that of negative control: 8 hours
[4] = system: β-amyloid (Aβ42) production; experiment: β-amyloid (Aβ42) production in APP-transfected HeLa cells, ELISA of culture solution; assay type: cell-based, human; conditions: for Inhibition rate (%) of Aβ42 production compared to that of negative control: 8 hours
[5] = system: β-secretase product (sAPPβ) production; experiment: β-secretase product (sAPPβ) production in APP-transfected HeLa cells, sAPPβ-Wild Type Assay Kit; assay type: cell-based; conditions: Homo sapiens, read-out: Inhibition rate (%) of sAPPβ production compared to negative control
Excerpt: The cause of inhibition of β-amyloid production in the Experimental example <3> was examined in more detail. β-amyloid was produced from amyloid precursor(APP) by continuous actions of membrane protein hydrolytic enzyme, β-secretase (BACE1), and γ-secretase (Vassa and Citron, Neuron 27, 419-422, 2000). More specifically, β-secretase product(sAPPβ) is produced from amyloid precursor (APP) by the action of β-secretase, from which β-amyloid is produced by the action of γ-secretase.
Based on the above, it was identified whether or not dihydrolycoricidine obtained in Example <2-1> is capable of inhibiting the production of β-secretase product(sAPPβ). Specifically, the same procedure as Experimental example <3> was conducted except that sAPPβ-Wild Type Assay Kit (Immuno-Biological Laboratories Co., Ltd., Japan) was used for quantifying sAPPβ. The negative control means the case to which dihydrolycoricidine was not added.

[6] = 10, 5, 1, 0.5, 0.2, 0.1 and 0.05 μg/ml, 8 hours
[7] = Homo sapiens, HeLa, 8 h, read-out: Inhibition rate (%) of Aβ40 production compared to that of negative control
[8] = Homo sapiens, HeLa, 8 h, read-out: Inhibition rate (%) of Aβ42 production compared to that of negative control

In the case of `COC1C=C2C3CN(Cc4cc5c(cc43)OCO5)C2CC1O` (stereo not shown) [2-methoxypancracine], the cells died (viable cells; 5 μg/ml (FIG. 11)) is reported as at most 10%, the “β-amyloid (Aβ40) production (FIG. 7)” value [1, 6] is reported as “inhibited by 2-methoxypancracine in a concentration dependent manner” and the “β-amyloid (Aβ42) production (FIG. 7)” value [2, 6] is reported as “inhibited by 2-methoxypancracine in a concentration dependent manner”.
For `O=C1NC2C(CC(O)C(O)C2O)c2cc3c(cc21)OCO3` (stereo not shown) [dihydrolycoricidine], the inhibition at 5 µM ([3]; Homo sapiens, HeLa, 5 μM, read-out: Inhibition rate (%) of Aβ40 production compared to that of negative control) was 28.4%, the inhibition at 10 µM ([3]; Homo sapiens, HeLa, 10 μM, read-out: Inhibition rate (%) of Aβ40 production compared to that of negative control) was 56.1% and the inhibition at 25 µM ([3]; Homo sapiens, HeLa, 25 μM, read-out: Inhibition rate (%) of Aβ40 production compared to that of negative control) was 59.8%. It also gave an inhibition at 50 µM ([3]; Homo sapiens, HeLa, 50 μM, read-out: Inhibition rate (%) of Aβ40 production compared to that of negative control) of 63%, an inhibition at 5 µM ([4]; Homo sapiens, HeLa, 5 μM, read-out: Inhibition rate (%) of Aβ42 production compared to that of negative control) of 58.8% and an inhibition at 10 µM ([4]; Homo sapiens, HeLa, 10 μM, read-out: Inhibition rate (%) of Aβ42 production compared to that of negative control) of 63.8%. The inhibition at 25 µM ([4]; Homo sapiens, HeLa, 25 μM, read-out: Inhibition rate (%) of Aβ42 production compared to that of negative control) was 88.8%, the inhibition at 50 µM ([4]; Homo sapiens, HeLa, 50 μM, read-out: Inhibition rate (%) of Aβ42 production compared to that of negative control) was 92.2% and the cells died (viable cells; 50 μM) was at most 30%. For the same compound, the “Cell death (%) compared to negative control” value (“Cell death (%)” for short) (viable cells; dihydrolycoricidine 5 μM) was 18.3%, the “Cell death (%)” value (viable cells; dihydrolycoricidine 10 μM) was 23.3% and the “Cell death (%)” value (viable cells; dihydrolycoricidine 25 μM) was 25.3%. The “Cell death (%)” value (viable cells; dihydrolycoricidine 50 μM) was 28.1%, the inhibition at 5 µM ([5]; 5 μM) was 6% and the inhibition at 10 µM ([5]; 10 μM) was 12%. The inhibition at 25 µM ([5]; 25 μM) was 28.9% and the inhibition at 50 µM ([5]; 50 μM) was 36.1%.
For `O=C1NC2C(=CC(O)C(O)C2O)c2cc3c(cc21)OCO3` (stereo not shown) [lycoricidine], the cells died (viable cells; 10 μM (lycoricidine)) was at most 20%, the “Cell death (%)” value (viable cells; 8 h, 0.01 μg/ml) was 4.9% and the “Cell death (%)” value (viable cells; 8 h, 0.1 μg/ml) was 11.3%. The “Cell death (%)” value (viable cells; 8 h, 1 μg/ml) was 19.0%, the “Cell death (%)” value (viable cells; 8 h, 10 μg/ml) was 21.1% and the inhibition at 0.01 µg/mL [1, 7] was 3.3%. The inhibition at 0.1 µg/mL [1, 7] was 67%, the inhibition at 1 µg/mL [1, 7] was 92.8% and the inhibition at 10 µg/mL [1, 7] was 97.2%. It also gave an inhibition at 0.01 µg/mL [2, 8] of 16%, an inhibition at 0.1 µg/mL [2, 8] of 81.3% and an inhibition at 1 µg/mL [2, 8] of 97.5%. The inhibition at 10 µg/mL [2, 8] was 100%.
For `O=C1NC2C(=CC(O)C(O)C2O)c2cc3c(c(O)c21)OCO3` (stereo not shown) [lycoricidinol], the “Inhibition rate (%) of Aβ40 production compared to that of negative control” value (shortened to “Inhibition rate (%) of Aβ40 production”) ([3]; lycoricidinol 0.01 μg/ml) was 25.0%, the “Inhibition rate (%) of Aβ40 production” value ([3]; lycoricidinol 0.1 μg/ml) was 90.4% and the “Inhibition rate (%) of Aβ40 production” value ([3]; lycoricidinol 1 μg/ml) was 97.8%. The “Inhibition rate (%) of Aβ40 production” value ([3]; lycoricidinol 10 μg/ml) was 98.4%, the “Inhibition rate (%) of Aβ42 production compared to that of negative control” value (“Inhibition rate (%) of Aβ42 production” below) ([4]; lycoricidinol 0.01 μg/ml) was 44.0% and the “Inhibition rate (%) of Aβ42 production” value ([4]; lycoricidinol 0.1 μg/ml) was 97.0%. The “Inhibition rate (%) of Aβ42 production” value ([4]; lycoricidinol 1 μg/ml) was 100%, the “Inhibition rate (%) of Aβ42 production” value ([4]; lycoricidinol 10 μg/ml) was 100% and the cells died (viable cells; 10 μM (lycoricidinol)) was at most 20%. The “Cell death (%)” value (viable cells; lycoricidinol 0.01 μg/ml) was 10.3%, the “Cell death (%)” value (viable cells; lycoricidinol 0.1 μg/ml) was 11.6% and the “Cell death (%)” value (viable cells; lycoricidinol 1 μg/ml) was 16.5%. For the same compound, the “Cell death (%)” value (viable cells; lycoricidinol 10 μg/ml) was 19.3%.
